Reference: patent EP1658844A1, “Use of artemisinin derivatives in the manufacture of a medicament for the treatment of melanoma” (Schuler, Gerold, priority 2004, dated 2006)

Key:
[1] = test system: metastatic uveal melanoma
Description: In the experimental examples below, standard techniques of therapeutical agent administration were used. […] Artesunate was provided by Sanofi Synthelabo, France.
The clinical course of the disease and the treatment modalities are depicted in detail in Figure 1. […] A chemotherapy with Dacarbazin (DTIC) was initiated at a concentration of 850 mg per m^2 body surface.
The clinical course of the disease and the treatment modalities are depicted in detail in Figure 2. […] A chemotherapy with DTIC at a concentration of 850 mg per m^2 body surface was initiated. […] In addition, the patient received an iron medication (three times daily ferroglycine sulfate equivalent to 40 mg Fe^2+) to potentially increase the efficacy of ART.

nucleic acid synthesis = details: cited from earlier work
P388 leukemia = details: NCI report on NSC 369397; cited from earlier work
[2] = test system: cell line panels consisting of 60 lines; details: 60 cell lines in nine disease-related subpanels; cited from earlier work
tumor = details: combination treatment with ferrous sulfate, three dog studies; cited from earlier work
uveal melanoma = details: largest prospective trial, metastatic uveal melanoma; cited from earlier work
[3] = within the group of artemisinin analogs; cited from earlier work

Structure (SMILES): C[C@H]1[C@H](OC(=O)CCC(=O)O)O[C@@H]2O[C@@]3(C)CC[C@H]4[C@H](C)CC[C@@H]1[C@@]24OO3 [ART, (3R,5aS,6R,8aS,9R,10S,12R,12aR)-Decahydro-3,6,9-trimethyl-3,12-epoxy-12H-pyrano[4,3-j]1,2-benzodioxepin-10-ol,hydrogen succinate]
- side effects throughout the combination therapy ([1]; human, in vivo): no additional side effects
- toxicity of ART-treatment ([1]; human, in vivo): without measurable toxicity
- survival after start of the ART/Fotemustine therapy ([1]; patient 1): 11 months
- response at first staging ([1]; patient 1, ART 2 times daily 50 mg p.o. in combination with Fotemustine, three months after initiation): mixed response
- time to death after entry into stage IV according to AJCC ([1]; patient 1, DTIC, then Fotemustine, then ART plus chemotherapy): 23 months
- survival (still alive) after initiation of ART/DTIC-therapy ([1]; patient 2): ≥ 37 months
- response ([1]; patient 2, 50 mg ART twice daily p.o. with DTIC and ferroglycine sulfate, after 21 courses of DTIC, the last 11 with ART): objective response
- survival (still alive) after first diagnosis of stage IV uveal melanoma ([1]; patient 2, ART added to Dacarbazin): ≥ 37 months
- activity relative to artemisinin in ability to inhibit nucleic acid synthesis (nucleic acid synthesis): 100 times

Structure (SMILES): C[C@@H]1CC[C@H]2[C@@H](C)C(=O)O[C@@H]3O[C@@]4(C)CC[C@@H]1[C@]32OO4 [Artemisinin]
- activity against P388 leukemia (P388 leukemia): inactive
- anticancer activity [2]: very little anticancer activity
- tumor size (tumor): reduction of tumor size

Structure (SMILES): CCOP(=O)(OCC)C(C)NC(=O)N(CCCl)N=O (stereo not drawn) [Fotemustine]
- complete responses (CR) (uveal melanoma): one CR in 48 patients

Structure (SMILES): CCO[C@H]1O[C@@H]2O[C@@]3(C)CC[C@H]4[C@H](C)CC[C@@H]([C@H]1C)[C@@]24OO3 [arteether]
- activity relative to artemisinin in ability to inhibit nucleic acid synthesis (nucleic acid synthesis): 100 times

Structure (SMILES): C[C@H]1[C@@H](OCc2ccc(C(=O)O)cc2)O[C@@H]2O[C@@]3(C)CC[C@H]4[C@H](C)CC[C@@H]1[C@@]24OO3 [artelinic acid]
- activity relative to artemisinin in ability to inhibit nucleic acid synthesis (nucleic acid synthesis): 100 times
- stability [3]: most stable
- water solubility [3]: most water soluble

Structure (SMILES): CCCOC(=O)OC1O[C@@H]2O[C@@]3(C)CC[C@H]4[C@H](C)CC[C@@H]([C@H]1C)[C@@]24OO3 (stereo partly drawn) [propylcarbonate dihydroartemisinin]
- activity relative to artemisinin in ability to inhibit nucleic acid synthesis (nucleic acid synthesis): 100 times
